Measured values as given in PMC7948503, “Optimization of a peptide ligand for the adhesion GPCR ADGRG2 provides a potent tool to explore receptor biology” (The Journal of Biological Chemistry, 2020).
Non-standard residues stand in square brackets, D forms with d. Residues, ends and D or L forms follow the SMILES beside them. *: point of attachment. FITC = O=C1OC2(c3ccc(O)cc3Oc3cc(O)ccc32)c2ccc(NC(=S)*)cc21; Phe(4-Me) = Cc1ccc(C[C@H](N)C(=O)O)cc1

What was measured:
Experiment in all cases: BRET binding of FITC-VPM-p15
[1] = biological target: T1, Rluc-ADGRG2-ΔGPS-β C614A (Mus musculus, UniProt Q8CJ12, C628A); settings: mutant C614A
T1 construct: the entire ECD (including the entire GPS motif) was removed (ADGRG2-ΔGPS-β); expressed in transfected cells; host or cells: HEK293
T1 sequence (Q8CJ12 618-1009 C628A limits assumed): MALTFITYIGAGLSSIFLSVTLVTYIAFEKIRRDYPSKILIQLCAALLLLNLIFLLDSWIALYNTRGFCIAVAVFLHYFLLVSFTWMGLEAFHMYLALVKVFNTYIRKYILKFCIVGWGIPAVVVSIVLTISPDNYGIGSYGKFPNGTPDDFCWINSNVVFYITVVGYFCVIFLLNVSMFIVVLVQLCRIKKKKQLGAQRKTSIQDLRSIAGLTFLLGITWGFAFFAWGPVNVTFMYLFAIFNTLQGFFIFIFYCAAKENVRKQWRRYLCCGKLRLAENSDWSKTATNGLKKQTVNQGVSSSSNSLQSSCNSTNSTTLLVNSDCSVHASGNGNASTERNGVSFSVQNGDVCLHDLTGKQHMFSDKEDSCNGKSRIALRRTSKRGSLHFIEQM
Description: (§1) The binding capacities of ADGRG2 WT or its mutants for VPM-p15 were determined by BRET assay, which has been used in previous studies ([27], [28], [29]). We fused the N terminus of ADGRG2 with a Rluc fragment and coupled FITC to the C terminus of VPM-p15 to facilitate BRET measurement. We stimulated the HEK293 cells transfected with Rluc-ADGRG2-ΔGPS-β wildtype (WT) or mutants by increasing the concentration of FITC-conjugated VPM-p15, and their binding abilities were determined by fitting the data with the saturation curves.
(§2) In the detection of binding capacities of ADGRG2 WT or its mutants for VPM-p15, HEK293 cells were transfected with Rluc-ADGRG2-ΔGPS-β or mutants. Transfected cells were stimulated by increasing the concentration of FITC-conjugated VPM-p15. Binding capacities were determined by BRET, EC50 values of ADGRG2 WT and its mutants for binding VPM-p15 were calculated by GraphPad, and data were normalized by EC50 of WT.

[2] = biological target: T2, Rluc-ADGRG2-ΔGPS-β F671A (Mus musculus, UniProt Q8CJ12, F685A); settings: mutant F671A
T2 construct: the entire ECD (including the entire GPS motif) was removed (ADGRG2-ΔGPS-β); expressed in transfected cells; host or cells: HEK293
T2 sequence (Q8CJ12 618-1009 F685A limits assumed): as the sequence (Q8CJ12 618-1009 C628A limits assumed) above, with A11C, F68A counted along it
Description: as §1, §2

[3] = biological target: T3, Rluc-ADGRG2-ΔGPS-β F764A (Mus musculus, UniProt Q8CJ12, F778A); settings: mutant F764A
T3 construct: the entire ECD (including the entire GPS motif) was removed (ADGRG2-ΔGPS-β); expressed in transfected cells; host or cells: HEK293
T3 sequence (Q8CJ12 618-1009 F778A limits assumed): as the sequence (Q8CJ12 618-1009 C628A limits assumed) above, with A11C, F161A counted along it
Description: as §1, §2

[4] = biological target: T4, Rluc-ADGRG2-ΔGPS-β F826A (Mus musculus, UniProt Q8CJ12, F840A); settings: mutant F826A
T4 construct: expressed in transfected cells; host or cells: HEK293
T4 sequence (Q8CJ12 614-1009 F840A): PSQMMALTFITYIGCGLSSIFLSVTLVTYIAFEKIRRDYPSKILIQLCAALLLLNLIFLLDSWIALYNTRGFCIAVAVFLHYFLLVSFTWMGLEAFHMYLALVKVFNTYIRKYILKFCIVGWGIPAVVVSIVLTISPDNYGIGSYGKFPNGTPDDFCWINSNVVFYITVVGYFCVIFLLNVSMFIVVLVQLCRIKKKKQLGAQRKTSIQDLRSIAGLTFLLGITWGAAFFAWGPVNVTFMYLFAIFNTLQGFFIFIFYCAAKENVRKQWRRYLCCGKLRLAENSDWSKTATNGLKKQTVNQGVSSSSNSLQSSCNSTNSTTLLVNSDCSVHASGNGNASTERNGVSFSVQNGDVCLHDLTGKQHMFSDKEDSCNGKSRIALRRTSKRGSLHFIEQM
Description: as §1, §2

[5] = biological target: T5, Rluc-ADGRG2-ΔGPS-β F828A (Mus musculus, UniProt Q8CJ12, F842A); settings: mutant F828A
T5 construct: expressed in transfected cells; host or cells: HEK293
T5 sequence (Q8CJ12 614-1009 F842A): as the sequence (Q8CJ12 614-1009 F840A) above, with A227F, F229A counted along it
Description: as §1, §2

[6] = biological target: T6, Rluc-ADGRG2-ΔGPS-β F829A (Mus musculus, UniProt Q8CJ12, F843A); settings: mutant F829A
T6 construct: expressed in transfected cells; host or cells: HEK293
T6 sequence (Q8CJ12 614-1009 F843A): as the sequence (Q8CJ12 614-1009 F840A) above, with A227F, F230A counted along it
Description: as §1, §2

[7] = biological target: T7, Rluc-ADGRG2-ΔGPS-β F845A (Mus musculus, UniProt Q8CJ12, F859A); settings: mutant F845A
T7 construct: expressed in transfected cells; host or cells: HEK293
T7 sequence (Q8CJ12 614-1009 F859A): as the sequence (Q8CJ12 614-1009 F840A) above, with A227F, F246A counted along it
Description: as §1, §2

[8] = biological target: T8, Rluc-ADGRG2-ΔGPS-β I741A (Mus musculus, UniProt Q8CJ12, I755A); settings: mutant I741A
T8 construct: the entire ECD (including the entire GPS motif) was removed (ADGRG2-ΔGPS-β); expressed in transfected cells; host or cells: HEK293
T8 sequence (Q8CJ12 618-1009 I755A limits assumed): as the sequence (Q8CJ12 618-1009 C628A limits assumed) above, with A11C, I138A counted along it
Description: as §1, §2

[9] = biological target: T9, Rluc-ADGRG2-ΔGPS-β I844A (Mus musculus, UniProt Q8CJ12, I858A); settings: mutant I844A
T9 construct: expressed in transfected cells; host or cells: HEK293
T9 sequence (Q8CJ12 614-1009 I858A): as the sequence (Q8CJ12 614-1009 F840A) above, with A227F, I245A counted along it
Description: as §1, §2

[10] = biological target: T10, Rluc-ADGRG2-ΔGPS-β L665A (Mus musculus, UniProt Q8CJ12, L679A); settings: mutant L665A
T10 construct: the entire ECD (including the entire GPS motif) was removed (ADGRG2-ΔGPS-β); expressed in transfected cells; host or cells: HEK293
T10 sequence (Q8CJ12 618-1009 L679A limits assumed): as the sequence (Q8CJ12 618-1009 C628A limits assumed) above, with A11C, L62A counted along it
Description: as §1, §2

[11] = biological target: T11, Rluc-ADGRG2-ΔGPS-β L679A (Mus musculus, UniProt Q8CJ12, L693A); settings: mutant L679A
T11 construct: the entire ECD (including the entire GPS motif) was removed (ADGRG2-ΔGPS-β); expressed in transfected cells; host or cells: HEK293
T11 sequence (Q8CJ12 618-1009 L693A limits assumed): as the sequence (Q8CJ12 618-1009 C628A limits assumed) above, with A11C, L76A counted along it
Description: as §1, §2

[12] = biological target: T12, Rluc-ADGRG2-ΔGPS-β S760A (Mus musculus, UniProt Q8CJ12, S774A); settings: mutant S760A
T12 construct: the entire ECD (including the entire GPS motif) was removed (ADGRG2-ΔGPS-β); expressed in transfected cells; host or cells: HEK293
T12 sequence (Q8CJ12 618-1009 S774A limits assumed): as the sequence (Q8CJ12 618-1009 C628A limits assumed) above, with A11C, S157A counted along it
Description: as §1, §2

[13] = biological target: T13, Rluc-ADGRG2-ΔGPS-β T610A (Mus musculus, UniProt Q8CJ12, T624A); settings: mutant T610A
T13 construct: the entire ECD (including the entire GPS motif) was removed (ADGRG2-ΔGPS-β); expressed in transfected cells; host or cells: HEK293
T13 sequence (Q8CJ12 618-1009 T624A limits assumed): as the sequence (Q8CJ12 618-1009 C628A limits assumed) above, with T7A, A11C counted along it
Description: as §1, §2

[14] = biological target: T14, Rluc-ADGRG2-ΔGPS-β V762A (Mus musculus, UniProt Q8CJ12, V776A); settings: mutant V762A
T14 construct: the entire ECD (including the entire GPS motif) was removed (ADGRG2-ΔGPS-β); expressed in transfected cells; host or cells: HEK293
T14 sequence (Q8CJ12 618-1009 V776A limits assumed): as the sequence (Q8CJ12 618-1009 C628A limits assumed) above, with A11C, V159A counted along it
Description: as §1, §2

[15] = biological target: T15, Rluc-ADGRG2-ΔGPS-β V769A (Mus musculus, UniProt Q8CJ12, V783A); settings: mutant V769A
T15 construct: expressed in transfected cells; host or cells: HEK293
T15 sequence (Q8CJ12 614-1009 V783A): as the sequence (Q8CJ12 614-1009 F840A) above, with V170A, A227F counted along it
Description: as §1, §2

[16] = biological target: T16, Rluc-ADGRG2-ΔGPS-β V836A (Mus musculus, UniProt Q8CJ12, V850A); settings: mutant V836A
T16 construct: expressed in transfected cells; host or cells: HEK293
T16 sequence (Q8CJ12 614-1009 V850A): as the sequence (Q8CJ12 614-1009 F840A) above, with A227F, V237A counted along it
Description: as §1, §2

[17] = biological target: T17, Rluc-ADGRG2-ΔGPS-β W662A (Mus musculus, UniProt Q8CJ12, W676A); settings: mutant W662A
T17 construct: the entire ECD (including the entire GPS motif) was removed (ADGRG2-ΔGPS-β); expressed in transfected cells; host or cells: HEK293
T17 sequence (Q8CJ12 618-1009 W676A limits assumed): as the sequence (Q8CJ12 618-1009 C628A limits assumed) above, with A11C, W59A counted along it
Description: as §1, §2

[18] = biological target: T18, Rluc-ADGRG2-ΔGPS-β Y765A (Mus musculus, UniProt Q8CJ12, Y779A); settings: mutant Y765A
T18 construct: the entire ECD (including the entire GPS motif) was removed (ADGRG2-ΔGPS-β); expressed in transfected cells; host or cells: HEK293
T18 sequence (Q8CJ12 618-1009 Y779A limits assumed): as the sequence (Q8CJ12 618-1009 C628A limits assumed) above, with A11C, Y162A counted along it
Description: as §1, §2

[19] = Kd(mutated ADGRG2-ΔGPS-β)/Kd(WT)

CC[C@H](C)[C@H](NC(=O)CNC(=O)[C@H](Cc1ccc(C)cc1)NC(=O)[C@H](CO)NC(=O)[C@@H](N)C(C)C)C(=O)N[C@@H](CC(C)C)C(=O)N[C@@H](CC(C)C)C(=O)N[C@@H](CC(=O)O)C(=O)N[C@@H](CC(C)C)C(=O)N[C@@H](CO)C(=O)N[C@@H](CCCNC(=N)N)C(=O)N[C@H](C(=O)N[C@@H](CO)C(=O)N[C@@H](CC(C)C)C(=O)N1CCC[C@H]1C(=O)N[C@@H](CCCCNC(=S)Nc1ccc2c(c1)C(=O)OC21c2ccc(O)cc2Oc2cc(O)ccc21)C(=O)O)[C@@H](C)O [FITC-VPM-p15] (H-VS[Phe(4-Me)]GILLDLSRTSLPK(FITC)-OH; N-terminus and C-terminus assumed)
Fmut [1, 19]: 1.382 | Bmax ([1]; binding Bmax (BRET)): 0.7934±0.0241 | Fmut [2, 19]: 0.940 | Bmax ([2]; binding Bmax (BRET)): 0.833±0.050 | Fmut [3, 19]: 1.183 | Bmax ([3]; binding Bmax (BRET)): 0.814±0.039 | Fmut [4, 19]: 1.248 | Bmax ([4]; binding Bmax (BRET)): 0.734±0.035 | Fmut [5, 19]: 1.247 | Bmax ([5]; binding Bmax (BRET)): 0.706±0.006 | Fmut [6, 19]: 0.344 | Bmax ([6]; binding Bmax (BRET)): 0.817±0.050 | Fmut [7, 19]: 1.452 | Bmax ([7]; binding Bmax (BRET)): 0.749±0.071 | Fmut [8, 19]: 0.715 | Bmax ([8]; binding Bmax (BRET)): 0.775±0.093 | Fmut [9, 19]: 1.640 | Bmax ([9]; binding Bmax (BRET)): 0.729±0.093 | Fmut [10, 19]: 0.850 | Bmax ([10]; binding Bmax (BRET)): 0.799±0.012 | Fmut [11, 19]: 1.242 | Bmax ([11]; binding Bmax (BRET)): 0.7804±0.017 | Fmut [12, 19]: 1.444 | Bmax ([12]; binding Bmax (BRET)): 0.716±0.011 | Fmut [13, 19]: 1.197 | Bmax ([13]; binding Bmax (BRET)): 0.8072±0.024 | Fmut [14, 19]: 1.268 | Bmax ([14]; binding Bmax (BRET)): 0.798±0.021 | Fmut [15, 19]: 1.145 | Bmax ([15]; binding Bmax (BRET)): 0.763±0.074 | Fmut [16, 19]: 1.315 | Bmax ([16]; binding Bmax (BRET)): 0.775±0.030 | Fmut [17, 19]: 1.128 | Bmax ([17]; binding Bmax (BRET)): 0.808±0.047 | Fmut [18, 19]: 0.967 | Bmax ([18]; binding Bmax (BRET)): 0.796±0.013
